# Test results reported in patent US6433025B1, “Method for retarding and preventing sunburn by UV light” (Cyanotech Corporation, priority 2000, dated 2002).
# Experiments:
# [1] = system: primed spleen cells; conditions: cited from earlier work
# [2] = system: rat kidney fibroblasts; conditions: cited from earlier work; for level necessary to protect against UV-induced loss of catalase (CAT) / level required to protect against loss of SOD activity / level that prevented the UVA-induced increase in TBARS: UVA light for four hours
# [3] = system: hairless mouse; conditions: repeated topical treatment; cited from earlier work
# [4] = system: SKH1 hairless mice; conditions: cited from earlier work
# [5] = system: human blood; conditions: response to T-dependent stimuli; cited from earlier work
# [6] = system: SKH hairless mice; conditions: fed as sole carotenoid source; cited from earlier work
# [7] = system: interleukin-1 alpha and tumor necrosis factor alpha; conditions: mouse, in vivo; cited from earlier work
# [8] = system: vitamin E-deficient rats; conditions: rat, in vivo; cited from earlier work
# [9] = system: sunburn by UVR exposure; assay: Example 1: oral astaxanthin soft gel capsules in a subject with extreme propensity for sunburns; format: in vivo, human
# Description: Haematococcus algae meal containing 1.5% astaxanthin was thoroughly mixed with safflower oil such that the resulting suspension contained 2.0 mg of pure astaxanthin per gram of safflower oil suspension. 500 mg soft gel capsules were produced from the safflower oil suspension such that each soft gel capsule contained 1.0 mg of pure astaxanthin.
# One individual was an adult with extreme propensity for sunburns. The subject had come to Hawaii for vacation and had already sunburned on a 10 minute walk with SPF 50 sunblock cream, long pants and sleeves. They then began taking 2 milligrams of astaxanthin of the above formulation per day. On the eleventh day, they took another walk in the afternoon, on a cloudy day, with long pants, a tee shirt, but without a hat or sunglasses. While 1 mile away from their condo, the clouds dissipated and they were exposed to the full sun while walking back.
# [10] = system: sunblister sores and sun sensitivity; assay: Example 2: oral astaxanthin in a construction worker with sunblister sores; format: in vivo, human; conditions: 4 milligrams per day oral
# Source text: An adult subject is a construction worker in Hawaii and is routinely exposed to the UVR of the sun while working outside. They were often affected by sunblister sores breaking out on their arm after a long day of sun exposure. The individual began taking 4 milligrams of astaxanthin per day derived from Haematococcus algae (as described in the above Example 1). Two milligrams of astaxanthin were consumed with lunch and 2 milligrams with dinner.
# The individual stopped taking the astaxanthin formulation for two weeks and the blisters and sun sensitivity returned.
# [11] = system: skin of volunteers; conditions: 10% solution applied to the skin, cited from earlier work
# [12] = system: sunburn cells; conditions: in vivo; cited from earlier work
# [13] = system: laboratory animals; conditions: applied up to 8 hours following UVB exposure; cited from earlier work
# [14] = system: basal-cell and squamous-cell carcinomas; conditions: 4.5 years, cited from earlier work
# [15] = system: human sunburn response; conditions: oral supplementation, normal individuals; cited from earlier work
# [16] = system: UV-induced erythema; conditions: cited from earlier work
compound,measurement,setting,value
CC1=C[C@H](O)CC(C)(C)[C@H]1/C=C/C(C)=C/C=C/C(C)=C/C=C/C=C(C)/C=C/C=C(C)/C=C/C1=C(C)C[C@@H](O)CC1(C)C [lutein],number of antibody-secreting cells from primed spleen cells,[1],not
same,level necessary to protect against UV-induced loss of catalase (CAT),[2],100 nM
same,level required to protect against loss of SOD activity,[2],1000 nM
same,level that prevented the UVA-induced increase in TBARS,[2],1000 nM
O=C(OOC(=O)c1ccccc1)c1ccccc1 [benzoyl peroxide],cutaneous effects of repeated administration,[3],produces skin changes in the hairless mouse that qualitatively resemble those produced by ultraviolet B
CC1=C(/C=C/C(C)=C/C=C/C(C)=C/C=C/C=C(C)/C=C/C=C(C)/C=C/C2=C(C)C(=O)CCC2(C)C)C(C)(C)CCC1=O [canthaxanthin],number of antibody-secreting cells from primed spleen cells,[1],not
CC1=C(/C=C/C(C)=C/C=C/C(C)=C/C=C/C=C(C)/C=C/C=C(C)/C=C/C2=C(C)C(=O)[C@@H](O)CC2(C)C)C(C)(C)C[C@H](O)C1=O [astaxanthin],prevention of increases of free putrescine after irradiation,[4]; astaxanthin alone or in combination with retinol,remarkably effective
same,increase of epidermal putrescine after irradiation,"[4]; diet 10-ppm astaxanthin, 4 months, ultraviolet light",1.5 fold
same,spermidine and spermine concentrations,[4]; groups fed astaxanthin,significantly lower
same,inhibitory effect on putrescine accumulation compared with dietary retinol,"[4]; mouse, in vivo",stronger inhibitory effect
same,"production of IgM, IgA and IgG antibodies",[5],enhances
same,probability of epidermal tumors,[6],tended to have higher probability of epidermal tumors
same,release of interleukin-1 alpha and tumor necrosis factor alpha,[7],enhances the release of interleukin-1 alpha and tumor necrosis factor alpha in mice to a greater degree than canthaxanthin and beta-carotene
same,mitochondrial damage caused by lipid peroxidation,[8],protects the mitochondria from damage
same,sunburn after exposure to the full sun,"[9]; adult female, 2 milligrams of astaxanthin per day oral, eleventh day",not affected by the UVR exposure
same,sunburn effects while wearing shorts outside,"[9]; remainder of vacation, while taking the astaxanthin supplement",without sunburn effects
same,number of antibody-secreting cells from primed spleen cells,[1],increased
same,T-helper cell antibody production,[1]; even when suboptimal amounts of antigen were present,enhanced
same,level necessary to protect against UV-induced loss of catalase (CAT),[2],5 nM
same,level required to protect against loss of SOD activity,[2],5 nM
same,level that prevented the UVA-induced increase in TBARS,[2],1 nM
same,protection against UVA light-induced oxidative stress compared to lutein and beta-carotene,[2],superior protection
same,sensitivity to the sunlight,[10]; after 1 month,noticeably improved
same,sunblister sores,[10]; after 1 month,all of their blisters were healed
same,sunblister sores,[10]; after 2 weeks,blisters began to heal
same,sensitivity to sun exposure,"[10]; adult male, after 2 weeks",not sensitive to the sun exposure
O=C1O[C@H]([C@@H](O)CO)C(O)=C1O [vitamin C],increase in amount of ultraviolet light needed to burn,[11]; average,22%
same,severity of burns,[11],half of the volunteers experienced much less severe bums
tocopherol,number of sunburn cells,[12],decreased
CC(=O)Oc1c(C)c(C)c2c(c1C)CCC(C)(CCC[C@H](C)CCC[C@H](C)CCCC(C)C)O2 (stereo partly drawn) [vitamin E acetate],"inflammation, skin sensitivity and skin damage",[13],"prevented inflammation, skin sensitivity and skin damage"
CC(C)=CCC/C(C)=C/C=C/C(C)=C/C=C/C(C)=C/C=C/C=C(C)/C=C/C=C(C)/C=C/C=C(\C)CCC=C(C)C [lycopene],probability of epidermal tumors,[6],tended to have higher probability of epidermal tumors
same,number of antibody-secreting cells from primed spleen cells,[1],not
CC1=C(/C=C/C(C)=C/C=C/C(C)=C/C=C/C=C(C)/C=C/C=C(C)/C=C/C2=C(C)CCCC2(C)C)C(C)(C)CCC1 [beta-carotene],incidence of basal-cell or squamous-cell carcinoma versus placebo,[14]; 30 mg per day,no significant difference
same,incidence of basal-cell carcinoma in terms of number of tumors,[14],no effect
same,probability of epidermal tumors,[6],tended to have higher probability of epidermal tumors
same,number of antibody-secreting cells from primed spleen cells,[1],not
same,severity of cutaneous photodamage,[15],unlikely to modify
same,level necessary to protect against UV-induced loss of catalase (CAT),[2],1000 nM
same,level required to protect against loss of SOD activity,[2],500 nM
same,level that prevented the UVA-induced increase in TBARS,[2],100 nM
COc1ccc2[nH]cc(CCNC(C)=O)c2c1 [melatonin],protective effects against UV-induced erythema,[16]; applied after UV irradiation,no significant protective effects
same,development of UV-induced erythema,"[16]; topical, 15 min before UV irradiation",almost completely suppress
